Where two headings read alike, the source gives them in different places.
Key:
[1] = tested on: Pseudomonas aeruginosa; experiment: Skin and soft tissue infection (SSTI) two-layer agar model, zone of inhibition around KBr pellets; type: cell-based; details: KBr pellet with 2% (w/w) of substance on P. aeruginosa lawn, incubation at 37° C. for 18 h
Excerpt: A skin and soft tissue infection (SSTI) model was used to study the antibacterial properties of three silver complexes. In this model, two layers of agar were employed to mimic a tissue infection with a nutrient rich bottom and the soft-top layer to allow for even dispersal of bacteria. The top soft agar acts like the skin and as bacteria grow they migrate towards the bottom nutrient layer mimicking an infected tissue. Frozen samples of Pseudomonas Aeruginosa were thawed and streaked on an agar plate. A single colony was selected and grown in Luria Broth (LB) for 18 h. The suspension was diluted with LB until an A600 (absorbance) of 0.5 was reached. The soft agar bacterial suspension was prepared by adding 120 mL of the above solution to 100 mL 0.8% (w/v) agar with 1% NaCl, which had been autoclaved and cooled to 45° C. before addition. The suspension was gently vortexed and 8 mL was spread evenly on the surface of 20 mL of a 1.5% (w/v) TSB agar plate (100×15 mm^2) and allowed to solidify. The plates were incubated for 2 h at 37° C. in order for the bacteria to reach log phase before bactericidal experiments were performed.
Blank KBr pellets (typically utilized for recording IR spectra) and KBr pellets with 2% (w/w) of three complexes (1), (2) and (5), each weighing between 34 and 46 mg, were evenly mulled and pressed with a two-ton load. Three blanks, containing PTA, or 4-Cl-pzH, or PPh3, were also prepared in the same manner. Pellets were carefully placed on the plates (see Example 8) after 2 h of incubation at 37° C.
A previously developed soft tissue infection (SSTI) model has been utilized for the present antibacterial studies. […] The gradient causes the bacteria to slowly travel from the slender top layer to the nutrient-rich bottom layer, much alike what would occur in a typical skin infection.

[2] = tested on: P. aeruginosa; experiment: Bacterial eradication assessed using the optical density method; type: cell-based, Pseudomonas aeruginosa
Excerpt: FIGS. 51A-51B show the results of bacterial eradication by compounds of complex (5) and complex (29) assessed using the optical density method.
(§1) Both complex (5) and complex (29) were comparatively tested against P. aeruginosa.

[3] = Solubility (qualitative); type: physicochemical
Excerpt: All complexes provided herein were neutral and soluble in variety of organic solvents.
as §1

Row | Compound | zone of bacterial clearing (zone of inhibition) [1] | further results
1 | Clc1cn[nH]c1 [4-Cl-pzH, 4-Cl-pyrazole] | much smaller but still visible zones of bacterial growth inhibition | 
2 | O=[N+]([O-])[O-].[Ag+] [AgNO3, silver nitrate] | Visible circular zones of bacterial clearing | 
3 | c1ccc(P(c2ccccc2)c2ccccc2)cc1 [PPh3, triphenylphosphine] | no zone of inhibition | 
4 | C1N2CN3CN1CP(C2)C3 [PTA, 1,3,5-triazaphosphaadamantane] | much smaller but still visible zones of bacterial growth inhibition | 
5 | disilver(I)-bis(μ-3-methyl-pyrazolido)bis(PTA) [complex (29)] |  | eradication of the bacterial culture ([2]; P. aeruginosa, lowest concentration tested, 31.25 μg/mL): ~90%; solubility in water and several bacterial growth media [3]: readily soluble
6 | disilver(I)-bis(μ-4-Cl-pyrazolido)(PPh3)3 [complex (2)] | minimal bacterial clearance | 
7 | disilver(I)-bis(μ-4-Cl-pyrazolido)tetrakis(PPh3) [complex (1)] | minimal bacterial clearance | 
8 | disilver(I)-bis(μ-4-Cl-pyrazolido)tetrakis(PTA) [complex (5)] | Visible circular zones of bacterial clearing | IC50, eradication of the bacterial culture ([2]; P. aeruginosa culture, optical density, increasing concentrations): > 2000 µg/mL; solubility in aqueous media ([3]; aqueous media): highly soluble; solubility in water and several bacterial growth media ([3]; water and several bacterial growth media): readily soluble

Reference: patent US12251401B2, “Synthesis and antimicrobial uses of dinuclear silver(I) pyrazolates” (The Florida International University Board of Trustees, priority 2018, dated 2025)
